Results published in paper PMC6437697 (Journal of Medicinal Chemistry, 2019).

Experiments:
Experiment in all cases: KINOMEscan
Assay type in all cases: binding
Conditions in all cases: read-out: % control activity remaining
[1] = biological target: T1, ULK3 (Homo sapiens, UniProt Q6PHR2)
T1 construct: purchased Eurofins DiscoverX KINOMEscan
T1 sequence (Q6PHR2 1-472): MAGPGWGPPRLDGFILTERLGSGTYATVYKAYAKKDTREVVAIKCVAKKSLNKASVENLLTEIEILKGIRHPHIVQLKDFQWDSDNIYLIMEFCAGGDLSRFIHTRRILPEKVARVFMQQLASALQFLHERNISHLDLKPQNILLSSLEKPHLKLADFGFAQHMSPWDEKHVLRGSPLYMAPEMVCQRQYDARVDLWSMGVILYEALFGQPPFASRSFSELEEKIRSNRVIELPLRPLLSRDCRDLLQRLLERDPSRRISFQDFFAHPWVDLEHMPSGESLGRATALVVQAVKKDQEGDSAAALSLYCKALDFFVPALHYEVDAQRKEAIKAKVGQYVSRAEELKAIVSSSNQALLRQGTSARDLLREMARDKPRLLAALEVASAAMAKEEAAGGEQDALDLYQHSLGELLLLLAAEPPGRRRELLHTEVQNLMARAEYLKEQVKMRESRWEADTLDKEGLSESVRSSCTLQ

[2] = biological target: T2, BMX (Homo sapiens, UniProt P51813)
T2 construct: purchased Eurofins DiscoverX KINOMEscan
T2 sequence (P51813 1-675): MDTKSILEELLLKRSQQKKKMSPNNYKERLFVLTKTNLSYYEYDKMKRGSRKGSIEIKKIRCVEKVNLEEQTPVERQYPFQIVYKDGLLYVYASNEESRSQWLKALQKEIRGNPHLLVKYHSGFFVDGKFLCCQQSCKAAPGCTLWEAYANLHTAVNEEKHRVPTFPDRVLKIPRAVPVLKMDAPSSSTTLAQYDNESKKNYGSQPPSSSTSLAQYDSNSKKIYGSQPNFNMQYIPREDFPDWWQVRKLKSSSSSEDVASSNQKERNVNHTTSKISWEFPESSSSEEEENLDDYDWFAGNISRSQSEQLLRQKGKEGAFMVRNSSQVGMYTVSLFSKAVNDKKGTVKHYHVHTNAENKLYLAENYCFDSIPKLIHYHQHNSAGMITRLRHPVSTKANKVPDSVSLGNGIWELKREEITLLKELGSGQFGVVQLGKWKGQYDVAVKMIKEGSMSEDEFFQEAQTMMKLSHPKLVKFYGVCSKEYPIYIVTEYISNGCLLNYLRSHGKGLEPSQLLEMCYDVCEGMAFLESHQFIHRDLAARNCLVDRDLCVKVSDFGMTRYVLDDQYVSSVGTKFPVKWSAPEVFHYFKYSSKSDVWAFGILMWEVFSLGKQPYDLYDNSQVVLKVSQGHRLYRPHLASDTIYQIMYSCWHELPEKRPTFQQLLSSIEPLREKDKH

[3] = biological target: T3, HUNK (Homo sapiens, UniProt P57058)
T3 construct: purchased Eurofins DiscoverX KINOMEscan
T3 sequence (P57058 1-714): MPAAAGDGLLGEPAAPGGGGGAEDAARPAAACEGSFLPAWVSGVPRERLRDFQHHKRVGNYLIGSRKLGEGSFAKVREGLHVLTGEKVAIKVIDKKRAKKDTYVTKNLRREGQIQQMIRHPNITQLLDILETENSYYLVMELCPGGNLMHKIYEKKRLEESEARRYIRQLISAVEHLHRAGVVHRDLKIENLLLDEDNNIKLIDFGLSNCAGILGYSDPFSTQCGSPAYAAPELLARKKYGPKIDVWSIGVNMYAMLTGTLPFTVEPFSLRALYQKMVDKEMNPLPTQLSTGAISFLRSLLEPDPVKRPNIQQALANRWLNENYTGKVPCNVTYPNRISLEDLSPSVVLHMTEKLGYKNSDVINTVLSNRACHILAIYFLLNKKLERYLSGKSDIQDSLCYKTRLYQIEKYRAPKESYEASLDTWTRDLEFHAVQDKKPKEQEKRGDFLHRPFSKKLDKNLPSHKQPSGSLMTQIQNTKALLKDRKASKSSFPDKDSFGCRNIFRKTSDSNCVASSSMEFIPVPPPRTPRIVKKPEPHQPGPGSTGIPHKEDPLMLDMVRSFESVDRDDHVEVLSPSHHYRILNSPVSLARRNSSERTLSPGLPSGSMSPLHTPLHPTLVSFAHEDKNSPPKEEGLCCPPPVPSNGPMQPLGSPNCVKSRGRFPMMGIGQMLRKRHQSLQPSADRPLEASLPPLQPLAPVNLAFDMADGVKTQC

| Structure (SMILES) | remaining binding at 1 µM [1] | remaining binding at 1 µM [2] | remaining binding at 1 µM [3] |
| --- | --- | --- | --- |
| Clc1cc(NCC2CC2)c2ncc(-c3ccc4[nH]ncc4c3)n2n1 [compound 2, 6-Chloro-N-(cyclopropylmethyl)-3-(1H-indazol-5-yl)imidazo[1,2-b]pyridazin-8-amine] | 78% | 96% | 90% |
| O=C(CN1CCOCC1)N[C@H]1CC[C@H](Nc2cc(Cl)nn3c(-c4ccc5[nH]ncc5c4)cnc23)CC1 [compound 26] | 95% | 92% | 100% |
| CN1CCC(CNc2cc(Cl)nn3c(-c4cc5nc(Nc6ccccc6)[nH]c5cc4F)cnc23)CC1 [compound 31, 6-Chloro-3-(6-fluoro-2-(phenylamino)-1H-benzo[d]imidazol-5-yl)-N-((1-methylpiperidin-4-yl)methyl)imidazo[1,2-b]pyridazin-8-amine] | 68% | 100% | 92% |
